According to ChEMBL document CHEMBL1137558, “Synthesis and biological evaluation of new 2-arylcarbonyl-3-trifluoromethylquinoxaline 1,4-di-N-oxide derivatives and their reduced analogues” (2007):

What was measured:
Type in all cases: functional
[1] = Anticancer activity against human NCI60 cells; conditions: for CC50: read-out: LC50 (the source's name)
[2] = Anticancer activity against melanoma cells; conditions: Homo sapiens, Melanoma cell
[3] = Anticancer activity against nonsmall lung cancer cells; conditions: Homo sapiens, Cancer cell lines
[4] = Anticancer activity against ovarian cancer cells; conditions: Homo sapiens, Cancer cell lines
[5] = Anticancer activity against prostate cancer cells; conditions: Homo sapiens, Cancer cell lines
[6] = Anticancer activity against colon cancer cells; conditions: Homo sapiens, Cancer cell lines
[7] = Anticancer activity against CNS cancer cells; conditions: Homo sapiens, Cancer cell lines
[8] = Anticancer activity against leukemia cells; conditions: Homo sapiens, Leukemia cell
[9] = Anticancer activity against breast cancer cells; conditions: Homo sapiens, Cancer cell lines
[10] = Anticancer activity against renal cancer cells; conditions: Homo sapiens, Cancer cell lines

Structure (SMILES) | GI50 [1] | TGI [1] | CC50 [1] | GI50 [2] | GI50 [3] | GI50 [4] | GI50 [5] | GI50 [6] | GI50 [7] | GI50 [8] | GI50 [9] | GI50 [10]
O=C(c1cccs1)c1c(C(F)(F)F)[n+]([O-])c2cc(F)c(F)cc2[n+]1[O-] | 370 nM | 1620 nM | 9330 nM | 390 nM | 830 nM | 530 nM | 510 nM | 270 nM | 440 nM | 50 nM | 410 nM | 500 nM
O=C(c1cccs1)c1c(C(F)(F)F)[n+]([O-])c2ccccc2[n+]1[O-] | 980 nM | 3890 nM | 11200 nM | 1390 nM | 350 nM | 750 nM | 400 nM | 830 nM | 1450 nM | 13900 nM | 850 nM | 480 nM
O=C(c1ccc2ccccc2c1)c1c(C(F)(F)F)[n+]([O-])c2ccc(F)cc2[n+]1[O-] | 1150 nM | 2820 nM | 8320 nM | 1120 nM | 1540 nM | 1200 nM | 1620 nM | 740 nM | 1610 nM | 440 nM | 1700 nM | 1480 nM
O=C(c1ccco1)c1c(C(F)(F)F)[n+]([O-])c2cc(C(F)(F)F)ccc2[n+]1[O-] | 470 nM | 1200 nM | 3890 nM | 860 nM | 480 nM | 650 nM | 190 nM | 280 nM | 810 nM | 130 nM | 480 nM | 490 nM
O=C(c1ccco1)c1c(C(F)(F)F)nc2ccc(C(F)(F)F)cc2[n+]1[O-] | 37200 nM | 83200 nM | > 100000 nM | 31500 nM | 39400 nM | 29300 nM | 38500 nM | 49800 nM | 25300 nM | 88100 nM | 34300 nM | 28600 nM
O=C(c1ccco1)c1c(C(F)(F)F)nc2cc(C(F)(F)F)ccc2[n+]1[O-] | 46800 nM | 89100 nM | > 100000 nM | 80600 nM | 47700 nM | 40400 nM | 44700 nM | 85400 nM | 24400 nM | 43600 nM | 38500 nM | 34600 nM
Cc1cc2c(cc1C)[n+]([O-])c(C(F)(F)F)c(C(=O)c1cccs1)[n+]2[O-] | 3470 nM | 17400 nM | 61700 nM | 3990 nM | 2810 nM | 2340 nM | 3890 nM | 5310 nM | 3050 nM | 2710 nM | 3080 nM | 4620 nM
O=C(c1cccs1)c1c(C(F)(F)F)[n+]([O-])c2ccc(C(F)(F)F)cc2[n+]1[O-] |  |  | 5500 nM | 900 nM | 450 nM | 430 nM | 200 nM | 380 nM | 480 nM | 200 nM | 500 nM | 310 nM
COc1ccc2c(c1)[n+]([O-])c(C(=O)c1ccco1)c(C(F)(F)F)[n+]2[O-] | 2820 nM | 18600 nM | 74100 nM | 3030 nM | 3490 nM | 2510 nM | 3160 nM | 2510 nM | 3200 nM | 3960 nM | 2880 nM | 1740 nM
Cc1ccc2c(c1)[n+]([O-])c(C(=O)c1cccs1)c(C(F)(F)F)[n+]2[O-] | 550 nM | 5500 nM | 33100 nM | 900 nM | 560 nM | 270 nM | 890 nM | 880 nM | 750 nM | 490 nM | 760 nM | 250 nM
O=C(c1cccs1)c1c(C(F)(F)F)[n+]([O-])c2ccc(F)cc2[n+]1[O-] | 1200 nM | 2880 nM | 9330 nM | 1510 nM | 1680 nM | 1170 nM | 1510 nM | 920 nM | 1630 nM | 270 nM | 1190 nM | 1650 nM
O=C(c1ccco1)c1c(C(F)(F)F)[n+]([O-])c2ccc(Cl)cc2[n+]1[O-] | 320 nM | 2570 nM | 10000 nM | 490 nM | 360 nM | 560 nM | 110 nM | 210 nM | 770 nM | 190 nM | 280 nM | 200 nM
O=C(c1ccco1)c1c(C(F)(F)F)[n+]([O-])c2ccc(C(F)(F)F)cc2[n+]1[O-] | 600 nM | 1480 nM | 5010 nM | 1110 nM | 760 nM | 720 nM | 420 nM | 570 nM | 910 nM | 210 nM | 570 nM | 430 nM
